Type in all cases: cell-based
In experiment [1] the test system is ID8 murine ovarian carcinoma cell line (BR+). The experiment is described as follows: In vitro cytotoxicity, standard MTT assay, ID8 cells. Particulars: read-out: IC50, ID8 (ovarian). How it is done: (§1) Cell Culture. All cell lines were obtained from ATCC unless otherwise noted. Cells were cultured in RPMI-1640 cell culture medium (Gibco) or DMEM (Gibco), both supplemented with 5% (v/v) heat-inactivated fetal bovine serum (FBS), 5% (v/v) NuSerum, and 1% (v/v) penicillin and streptomycin (PenStrep) at 37° C. in a humidified atmosphere with 5% CO2. MX-1 and ID8 (obtained from University of Kansas Medical Center) cells were cultured as monolayers on 100 mm tissue culture dishes in supplemented RPMI-1640. L1210 and L1210FR (a gift from Dr. Gregory Russell-Jones, Access Pharmaceuticals Pty Ltd., Australia) were grown as a suspension in supplemented RPMI-1640, and WI-38 as a monolayer in supplemented DMEM. Cells were harvested, collected by centrifugation at 850 rpm for 5 min, and resuspended in fresh culture medium. Cell cultures were routinely divided by treatment with trypsin (TrypLE, Gibco) as needed every 2-4 days and collected by centrifugation at 850 rpm for 5 min, and resuspended in fresh cell culture medium, containing varying cell densities for subsequent biological experiments and analysis.
(§2) In Vitro Cytotoxicity Assays. […] Cells were harvested, collected, and resuspended in 100 μL cell culture medium at concentrations ranging from 0.5-1.5×10^4 cells per well in a 96-well plate. For adhesive cell types, cells were allowed to descend to the bottom of the wells overnight, and fresh medium was added to each well upon removal of the old medium.
For the MTT assay (Table 1 and the Assay 1 in Table 2) of paclitaxel, taxoid 3 and conjugates 1 and 15, cells were resuspended in 200 μL medium with 8,000 to 10,000 cells per well of a 96-well plate and incubated at 37° C. for 24 h before drug treatment. In DMSO stock solutions, each drug or conjugate was diluted to a series of concentrations in cell culture medium to prepare test solutions. […] For the leukemia cell lines, L1210 and L1210FR, cells were harvested, collected, and resuspended in the test solutions ranging from 0.5 to 5,000 nM (100 μL) at 0.5 to 0.8 ×10^4 cells per well in a 96-well plate and subsequently incubated at 37° C. for 48 h (Table 1) or 72 h (Table 2, Assay 1).
(§3) For all experiments, after removing the test medium, fresh solution of MTT in PBS (40 μL of 0.5 mg MTT/mL) was added to the wells, and the cells were incubated at 37° C. for 3 h. The MTT solution was then removed, and the resulting insoluble violet formazan crystals were dissolved in 0.1 N HCl in isopropanol with 10% Triton X-100 (40 μL) to give a violet solution. The spectrophotometric absorbance measurement of each well in the 96-well plate was run at 570 nm using a Labsystems Multiskan Ascent microplate reader. The IC50 values and their standard errors were calculated from the viability-concentration curve using Four Parameter Logistic Model of Sigmaplot. The concentration of DMSO per well was ≤1% in all cases. Each experiment was run in triplicate.

In experiment [2] the test system is L1210 murine lymphocytic leukemia cell line (BR−). As to the kind of experiment: In vitro cytotoxicity, standard MTT assay, L1210 cells. Particulars: 72 h drug incubation; read-out: IC50, L1210 (leuk.). How it is done:
as §1, §2
(§4) For the MTT assay (Table 1 and the Assay 1 in Table 2) of paclitaxel, taxoid 3 and conjugates 1 and 15, cells were resuspended in 200 μL medium with 8,000 to 10,000 cells per well of a 96-well plate and incubated at 37° C. for 24 h before drug treatment. In DMSO stock solutions, each drug or conjugate was diluted to a series of concentrations in cell culture medium to prepare test solutions. After removing the old medium, these test solutions were added to the wells in the 96-well plate to give the final concentrations ranging from 0.5 to 5,000 nM (100 μL), and the cells were subsequently cultured at 37° C. for 48 h (Table 1) or 72 h (Table 2, Assay 1). For the leukemia cell lines, L1210 and L1210FR, cells were harvested, collected, and resuspended in the test solutions ranging from 0.5 to 5,000 nM (100 μL) at 0.5 to 0.8 ×10^4 cells per well in a 96-well plate and subsequently incubated at 37° C. for 48 h (Table 1) or 72 h (Table 2, Assay 1).
as §3
Background: Tetrazolium assays rely on reduction of a dye to a coloured formazan, in cell work by metabolically active cells.

For experiment [3], the system named is WI38 human lung fibroblast cell line (BR−). As to the kind of experiment: In vitro cytotoxicity, standard MTT assay, WI38 cells. Particulars: 24 hour incubation; read-out: IC50, WI38 (normal lung).
A further experiment deals with MCF-7 (breast). As to the kind of experiment: In vitro cytotoxicity, standard MTT assay, MCF-7 cells. Particulars: 72 h drug incubation. The procedure: as §2
For the MTT assay (Table 1 and the Assay 1 in Table 2) of paclitaxel, taxoid 3 and conjugates 1 and 15, cells were resuspended in 200 μL medium with 8,000 to 10,000 cells per well of a 96-well plate and incubated at 37° C. for 24 h before drug treatment. In DMSO stock solutions, each drug or conjugate was diluted to a series of concentrations in cell culture medium to prepare test solutions. […]
For all experiments, after removing the test medium, fresh solution of MTT in PBS (40 μL of 0.5 mg MTT/mL) was added to the wells, and the cells were incubated at 37° C. for 3 h. […] The spectrophotometric absorbance measurement of each well in the 96-well plate was run at 570 nm using a Labsystems Multiskan Ascent microplate reader. The IC50 values and their standard errors were calculated from the viability-concentration curve using Four Parameter Logistic Model of Sigmaplot. […]

The subject of experiment [4] is L1210FR murine lymphocytic leukemia cell line (BR+). As to the kind of experiment: In vitro cytotoxicity, standard MTT assay, L1210FR cells. Particulars: 24 hour incubation; read-out: IC50, L1210 FR (leuk.).
The test system is the same in experiment [5]. Described as above. Particulars: 72 h drug incubation; read-out: IC50, L1210FR (leuk.). How it is done: as §1, §2, §4
(§5) In the Assay 2 (Table 2), cells were incubated with 1 or 15 at 37° C. for 24 h, and the drug medium was removed. Then, treated cells were thoroughly washed with PBS, and GSH-OEt (6 equiv. to conjugate) in cell culture medium (200 μL) was added to the wells. These cells were incubated at 37° C. for an additional 48 h, i.e., the total incubation time was 72 h.
(§6) In the Assay 3 (Table 2), cells were incubated with 1 or 15 at 37° C. for 24 h, and GSH-OEt (6 equivalents) in cell culture medium (100 μL) was directly added to the wells. These cells were incubated at 37° C. for an additional 48 h, i.e. the total incubation time was also 72 h.
as §3

In experiment [6] the test system is WI38 human lung fibroblast cell line (BR−). The experiment is described as follows: In vitro cytotoxicity, standard MTT assay, WI38 cells. Particulars: 72 h drug incubation; read-out: IC50, WI38 (normal lung). The procedure:
as §1, §2, §4, §5, §6, §3

Experiment [7] deals with MX-1 human breast carcinoma cell line (BR+). As to the kind of experiment: In vitro cytotoxicity, standard MTT assay, MX-1 cells. Particulars: read-out: IC50, MX-1 (breast). How it is done:
as §1, §2, §4, §5, §6, §3

The values below come from patent publication US10280183B2, “Therapeutic agent for treating tumors” (THE RESEARCH FOUNDATION FOR THE STATE UNIVERSITY OF NEW YORK, priority 2014, dated 2019).

Where two headings read alike, the source gives them in different places.

A word on the IC50: it is the concentration at which inhibition is half-maximal. Turning to `CC[C@@]1(OC(=O)Cc2ccccc2SSC(C)CCC(=O)NCCOCCOCCOCCn2cc(CNc3nc(NCCNC(=O)CCC(C)SSc4ccccc4CC(=O)O[C@@H](C(=O)O[C@H]4C[C@@]5(O)[C@@H](OC(=O)c6ccccc6)[C@@H]6[C@]7(OC(C)=O)CO[C@@H]7C[C@H](O)[C@@]6(C)C(=O)[C@H](OC(=O)C6CC6)C(=C4C)C5(C)C)[C@H](C=C(C)C)NC(=O)OC(C)(C)C)nc(NCCOCCOCCOCCNC(=O)CCCC[C@@H]4SC[C@@H]5NC(=O)N[C@@H]54)n3)nn2)C(=O)OCc2c1cc1n(c2=O)Cc2cc3ccccc3nc2-1` (stereo partly shown) [Compound 116], the IC50 in experiment [1] (24 hour incubation) came out at 5.66 nM; in experiment [1] (72 h drug incubation) it was 23.4 nM; in experiment [2] it was 690 nM; in experiment [3] it was 705 nM; in the experiment on MCF-7 (breast), 19 nM; in experiment [4], 7.4 nM. In addition, the IC50 in experiment [5] worked out at 39.1 nM; in experiment [6] it was 742 nM; in experiment [7] (24 hour incubation), 9.8 nM; in experiment [7] (72 h drug incubation) it was 51.7 nM.
